What was measured:
[1] = target: T1, interaction between Supt4h and NGN (subunit of Supt5h) (Homo sapiens, UniProt O00267+P63272); test: Split Gaussia luciferase complementation assay (M2-8 Luciferase); type: cell-based; settings: M2-8 cells
T1 construct: expressed in transfected cells
Outline: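 HEK293-derived M2-8 cells inducibly express Supt4h-Gluc1 and NGN-Gluc2 fragments (stabilizing mutations) on RheoSwitch ligand addition; ligand plus compound added 24 h after plating and left 24 h. Cells frozen, lysed with 10 μg/ml native coelenterazine, 1 h room temperature dark; complemented luciferase luminescence read.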

M2-8 cells = test: M2-8 Cell viability Assay; type: cell-based; settings: at the concentration of 1000 nM
mutant HTT [2] = test: Mutant HTT assay in lymphoblastoid cells (LBC), Western blot; type: cell-based, human; settings: read-out: LBC IC20 (nM) mHTT, 3 days compound treatment
Outline: (§1)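 HD patient lymphoblastoid cells (GM14044, 250 CAG repeats in mutant allele) treated with compound for 3 days. Lysates normalised by BCA, run on SDS-PAGE and immunoblotted: mutant HTT with anti-polyQ MW1, wild-type HTT with anti-Huntingtin antibody, TBP and tubulin also probed. Band intensities quantified by infrared imaging.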

wild-type HTT = test: Wild-type HTT assay in lymphoblastoid cells (LBC), Western blot; type: cell-based, human; settings: 3 days compound treatment, read-out: LBC IC20 (nM) wtHTT
Outline: as §1

[3] = tested on: Lymphoblastoid cells (GM14044); test: LBC cell viability (Cell Titer-Glo); type: cell-based, human; settings: at the concentration of IC20, 3-day compound treatment
Protocol: Cell viability was determined by Cell Titer-Glo reagent (Promega, PRG9243). After 3-day compound treatment, 15 μl of cell suspension was taken out from plate and incubated with 10 μl of CTG reagent. The values of reaction mixture were detected by Tecan.

mutant HTT [4] = test: Mutant HTT assay in induced pluripotent stem cells (iPSC); type: cell-based, human; settings: HD patient iPSCs, one day incubation, read-out: iPSC IC20 (nM) mHTT
Protocol: C. Mutant HTT Assay in Induced Pluripotent Stem Cells (iPSC) a. Cell Culturing and Compound Treatment
Huntington's disease patient iPSCs (ND50036 from NINDS) were detached into single cells by Accutase (25058CI from Corning), counted and plated on a 24-well plate coated with Matrigel (354277 from Corning) at density of 7,000 cells/well. After 48 hrs, compounds were added to the cell culture medium mTeSR1 (85850 from StemCell Technologies) and the cells were incubated for one day. The medium was then removed, and the cells were washed with PBS. After all liquid was removed, the plate was placed at −80° C. overnight. Lysis buffer [30 mM Tris-HCl (pH 8.0), 5 mM NaCl, 0.1% Triton X-100] with the complete proteinase inhibitor cocktail (5892791001 from Sigma-Aldrich) was then added to the cells. Cell samples were lysed on an orbital plate shaker at 4° C. at 700 rpm for 30 min. The supernatants from spinning (14 k rpm for 10 min) were collected. The protein concentrations were determined by BCA assay (23225 from Pierce, ThermoFisher). […]
b. Detection of Mutant HTT Protein
Equal amounts of protein lysate collected from each sample were added to a 96-well plate that had been coated with a human HTT specific monoclonal antibody. After washing away any unbound substances, a biotinylated anti-human mutant HTT specific detection antibody was added. Streptavidin-horseradish peroxidase was subsequently added, followed by TMB Substrate Solution, which yielded a blue product that turns yellow when the Stop Solution was added. The intensity of the color measured was in proportion to the amount of mutant HTT bound in the initial step. The mutant HTT values are then interpolated from a standard curve.

[5] = tested on: Huntington's disease patient iPSCs (ND50036); test: iPSC viability at IC20; type: cell-based, human; settings: at the concentration of IC20
mouse hepatocytes = test: In vitro metabolic stability in mouse hepatocytes; type: in vitro ADME
Protocol: A. In Vitro Metabolic Stability in Hepatocyte
A compound's metabolic stability was assessed using mouse hepatocytes incubated with pre-defined concentration of test articles over several incubation period. The extent of metabolism was calculated from the disappearance of the test compound measured by liquid chromatography mass spectrometry (LC-MS), compared to that of 0-min control. After incubation, quench solutions including internal standards were added and analyzed by LC/MS. The elimination rate constant and intrinsic clearance (CLhepatocyte) values were calculated by linear regression of the compound elimination over the duration of incubation, normalized to the cell number in the given volume of incubation medium.

[6] = tested on: Gmr::HTT97Q fly (mutant HTT, rough eye); test: HD-Drosophila phenotypic assay (rough eye analysis); type: in vivo, Drosophila melanogaster; settings: Gmr-HTT97Q flies, compound 10 μM in media
Source text: D. Alleviation of Neuron Degeneration Phenotypes of Mutant HTT in Drosophila HD Models
The Drosophila melanogaster (fruit fly) HD models carry the coding sequence of human HTT exon1 with 97 CAG repeats to mimic mutant HTT of Huntington's disease (HD). The Gmr::HTT97Q fly, expressing mutant HTT primarily in the neurons of Drosophila compound eyes, has a severe degeneration of photoreceptor neurons and the phenotypic trait ‘rough eye’. All of the fly stocks and genetics crosses are maintained at 25° C. on standard cornmeal yeast agar media.
b. Eye Morphology (Rough Eye) Analysis
Fifteen adult male flies (Gmr-HTT97Q/Gmr-HTT97Q or Gmr/Gmr) are crossed with 15 virgin female flies W1118(+/+) in a vial containing standard yeast agar media with the compound in a concentration of 10 μM. Parent-flies are removed from vials at day 7, followed by a collection of newly hatched flies for ‘rough eye’ analysis. The morphology of compound eyes is captured using a Leica DMR upright microscope equipped with a digital camera (CoolSNAP 5.0, Photometrics). To increase the depth of field, imaging software is used to create montage composite images (Helicon Focus, HeliconSoft). A total of 10 flies are collected for analysis in each individual condition, and the biological experiment is conducted three times. DMSO, the reagent solvent of the compound, is included as a control.

In the case of `C=Cc1ccc2[nH]c3c(c2c1)CCC[C@H]3NCc1ccccc1` [Compound 45], the IC50 [1] is reported as no more than 0.1 µM, the “M2-8 Cell viability” value (M2-8 cells) is reported as “+ (cell viability is greater than 50% at the concentration of 1000 nM)” and the IC20 (mutant HTT [2]) is reported as less than 100 nM. For the same compound, the IC20 (wild-type HTT) was greater than 1000 nM, the “LBC viability at IC20” value [3] was “* (cell viability is greater than 60% at the concentration of IC20)” and the IC20 (mutant HTT [4]; class symbols) was less than 100 nM. The “iPSC viability at IC20” value [5] was “+ (cell viability is greater than 75% at the concentration of IC20)”.

In the case of `CC(C)(O)c1ccc(CN[C@@H]2CCCc3c2[nH]c2ccc(Br)nc32)s1` [Compound 66], the IC50 [1] is reported as no more than 0.1 µM, the “M2-8 Cell viability” value (M2-8 cells) is reported as “+ (cell viability is greater than 50% at the concentration of 1000 nM)” and the IC20 (mutant HTT [2]) is reported as less than 100 nM. For the same compound, the IC20 (wild-type HTT) was greater than 1000 nM, the “LBC viability at IC20” value [3] was “* (cell viability is greater than 60% at the concentration of IC20)” and the IC20 (mutant HTT [4]; class symbols) was less than 100 nM. The “iPSC viability at IC20” value [5] was “+ (cell viability is greater than 75% at the concentration of IC20)”.

With `CC1(C)OB(c2ccc(CN[C@@H]3CCCc4c3[nH]c3ccc(Br)cc43)cc2)OC1(C)C` [Compound 43, (R)-6-bromo-N-(4-(4,4,5,5-tetramethyl-1,3,2-dioxaborolan-2-yl)benzyl)-2,3,4,9-tetrahydro-1H-carbazol-1-amine] the IC50 [1] was no more than 0.1 µM, the “M2-8 Cell viability” value (M2-8 cells) was “+ (cell viability is greater than 50% at the concentration of 1000 nM)” and the IC20 (mutant HTT [2]) was 101 to 300 nM. The IC20 (wild-type HTT) was greater than 1000 nM, the “LBC viability at IC20” value [3] was “* (cell viability is greater than 60% at the concentration of IC20)” and the IC20 (mutant HTT [4]; class symbols) was less than 100 nM. For the same compound, the “iPSC viability at IC20” value [5] was “+ (cell viability is greater than 75% at the concentration of IC20)”.

`Oc1ccc(CN[C@@H]2CCCc3c2[nH]c2ccc(Br)cc32)cc1` [Compound 60, (R)-4-(((6-bromo-2,3,4,9-tetrahydro-1H-carbazol-1-yl)amino)methyl)phenol] was tested, and the IC50 [1] was no more than 0.1 µM, the “M2-8 Cell viability” value (M2-8 cells) was “+ (cell viability is greater than 50% at the concentration of 1000 nM)” and the IC20 (mutant HTT [2]) was 101 to 300 nM. The IC20 (wild-type HTT) was greater than 1000 nM, the “LBC viability at IC20” value [3] was “* (cell viability is greater than 60% at the concentration of IC20)” and the IC20 (mutant HTT [4]; class symbols) was less than 100 nM. For the same compound, the “iPSC viability at IC20” value [5] was “+ (cell viability is greater than 75% at the concentration of IC20)”.

In the case of `OB1OCc2cc(CN[C@@H]3CCCc4c3[nH]c3ccc(Br)cc43)ccc21` [Compound 37], the IC50 [1] is reported as 0.101 to 0.3 µM, the “M2-8 Cell viability” value (M2-8 cells) is reported as “+ (cell viability is greater than 50% at the concentration of 1000 nM)” and the IC20 (mutant HTT [2]) is reported as 101 to 300 nM. For the same compound, the IC20 (wild-type HTT) was greater than 1000 nM, the “LBC viability at IC20” value [3] was “* (cell viability is greater than 60% at the concentration of IC20)” and the IC20 (mutant HTT [4]; numeric bounds) was greater than 100 nM. For the same compound, the “Mouse HepStability (CLhepatocyte)” value (mouse hepatocytes) was “B (CLhepatocyte 10-30 μl/min/10^6cells)”.

With `OB(O)c1ccc(CN[C@@H]2CCCc3c2[nH]c2ccc(Br)cc32)cc1` [Compound 38, (R)-(4-(((6-bromo-2,3,4,9-tetrahydro-1H-carbazol-1-yl)amino)methyl)phenyl)boronic acid] the IC50 [1] was no more than 0.1 µM, the “M2-8 Cell viability” value (M2-8 cells) was “+ (cell viability is greater than 50% at the concentration of 1000 nM)” and the IC20 (mutant HTT [2]) was 101 to 300 nM. For the same compound, the IC20 (wild-type HTT) was greater than 1000 nM, the “LBC viability at IC20” value [3] was “* (cell viability is greater than 60% at the concentration of IC20)” and the IC20 (mutant HTT [4]; class symbols) was less than 100 nM. The “iPSC viability at IC20” value [5] was “+ (cell viability is greater than 75% at the concentration of IC20)” and the “Mouse HepStability (CLhepatocyte)” value (mouse hepatocytes) was “C (CLhepatocyte >30 μl/min/10^6cells)”.

In the case of `OCc1ccc(CN[C@@H]2CCCc3c2[nH]c2ccc(Br)cc32)s1` [Compound 36, (R)-(5-(((6-bromo-2,3,4,9-tetrahydro-1H-carbazol-1-yl)amino)methyl)thiophen-2-yl)methanol], the IC50 [1] is reported as no more than 0.1 µM, the “M2-8 Cell viability” value (M2-8 cells) is reported as “+ (cell viability is greater than 50% at the concentration of 1000 nM)” and the IC20 (mutant HTT [2]) is reported as 101 to 300 nM. For the same compound, the IC20 (wild-type HTT) was greater than 1000 nM, the “LBC viability at IC20” value [3] was “* (cell viability is greater than 60% at the concentration of IC20)” and the IC20 (mutant HTT [4]; class symbols) was less than 100 nM. For the same compound, the “iPSC viability at IC20” value [5] was “+ (cell viability is greater than 75% at the concentration of IC20)” and the “Mouse HepStability (CLhepatocyte)” value (mouse hepatocytes) was “C (CLhepatocyte >30 μl/min/10^6cells)”.

In the case of `CC(C)(O)c1ccc(CN[C@@H]2CCCc3c2[nH]c2ccc(Br)nc32)cc1` [Compound 63], the IC50 [1] is reported as no more than 0.1 µM, the “M2-8 Cell viability” value (M2-8 cells) is reported as “+ (cell viability is greater than 50% at the concentration of 1000 nM)” and the IC20 (mutant HTT [2]) is reported as less than 100 nM. For the same compound, the IC20 (wild-type HTT) was greater than 500 nM, the “LBC viability at IC20” value [3] was “* (cell viability is greater than 60% at the concentration of IC20)” and the IC20 (mutant HTT [4]; class symbols) was less than 100 nM. For the same compound, the “iPSC viability at IC20” value [5] was “+ (cell viability is greater than 75% at the concentration of IC20)”.

For `OCc1ccc(CN[C@H]2CCCc3c2[nH]c2ccc(Br)cc32)cc1` [Compound 3], the IC50 [1] was greater than 1 µM, the “M2-8 Cell viability” value (M2-8 cells) was “+ (cell viability is greater than 50% at the concentration of 1000 nM)” and the IC20 (mutant HTT [2]) was greater than 1000 nM. For the same compound, the IC20 (wild-type HTT) was greater than 1000 nM, the IC20 (mutant HTT [4]; numeric bounds) was greater than 100 nM and the “HD-Drosophila Phenotypic assay (rescue of rough eye phenotype)” value [6] was “@ (rough eye phenotype of HD flies is rescued by testing compound less than 40%)”.

For `C[C@@H](N[C@@H]1CCCc2c1[nH]c1ccc(Br)cc21)c1ccccc1` (single isomer, unassigned) [Compound 13], the IC50 [1] was no more than 0.1 µM, the “M2-8 Cell viability” value (M2-8 cells) was “+ (cell viability is greater than 50% at the concentration of 1000 nM)” and the IC20 (mutant HTT [2]) was 101 to 300 nM. For the same compound, the IC20 (wild-type HTT) was greater than 1000 nM, the “LBC viability at IC20” value [3] was “* (cell viability is greater than 60% at the concentration of IC20)” and the IC20 (mutant HTT [4]; class symbols) was less than 100 nM. The “iPSC viability at IC20” value [5] was “+ (cell viability is greater than 75% at the concentration of IC20)”.

— patent publication US20220062233A1 (The Board of Trustees of the Leland Stanford Junior …, priority 2018, published 2022)
